Assay results from patent publication US20260092071A1, “COMPOUNDS AND COMPOSITIONS AS SMARCA2/4 DEGRADERS AND USES THEREOF” (REGENTS OF THE UNIVERSITY OF MICHIGAN, priority 2022, published 2026).

Key:
SMARCA2 = SMARCA2 (Homo sapiens, UniProt P51531); experiment: HiBit assay in engineered HT1080 CRISPR knock-in cell, 6 hrs (B series), SMARCA2; format: cell-based; settings: 6 hrs incubation; for DC50: HT1080 CRISPR knock-in cells, read-out: SMARC A2 HT1080 HiBit DC50; for Dmax: HT-1080, HT1080 CRISPR knock-in cells, read-out: SMARC A2 HT1080 HiBit Dmax (%)
Summary of the method: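 Protein abundance is measured in HiBiT-tagged HT1080 CRISPR knock-in cells after a 6 hr compound treatment (0.1% DMSO) by lytic Nano-Glo HiBiT luminescence.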

SMARCA4 = SMARCA4 (Homo sapiens, UniProt P51532); experiment: HiBit assay in engineered HT1080 CRISPR knock-in cell, 6 hrs (B series), SMARCA4; format: cell-based; settings: 6 hrs incubation; for DC50: HT1080 CRISPR knock-in cells, read-out: SMARC A4 HT1080 HiBit DC50; for Dmax: HT-1080, HT1080 CRISPR knock-in cells, read-out: SMARC A4 HT1080 HiBit Dmax(%)
Summary of the method: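 HT1080 CRISPR knock-in cells carrying the HiBiT tag were seeded onto compounds (final DMSO 0.1%) and incubated 6 hrs at 37° C, 5% CO2. Remaining tagged protein was detected by lytic HiBiT luminescence after adding LgBiT protein and substrate, with LgBiT-free wells serving as negative control.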

Chain of SMARCA4 (P51532 whole entry): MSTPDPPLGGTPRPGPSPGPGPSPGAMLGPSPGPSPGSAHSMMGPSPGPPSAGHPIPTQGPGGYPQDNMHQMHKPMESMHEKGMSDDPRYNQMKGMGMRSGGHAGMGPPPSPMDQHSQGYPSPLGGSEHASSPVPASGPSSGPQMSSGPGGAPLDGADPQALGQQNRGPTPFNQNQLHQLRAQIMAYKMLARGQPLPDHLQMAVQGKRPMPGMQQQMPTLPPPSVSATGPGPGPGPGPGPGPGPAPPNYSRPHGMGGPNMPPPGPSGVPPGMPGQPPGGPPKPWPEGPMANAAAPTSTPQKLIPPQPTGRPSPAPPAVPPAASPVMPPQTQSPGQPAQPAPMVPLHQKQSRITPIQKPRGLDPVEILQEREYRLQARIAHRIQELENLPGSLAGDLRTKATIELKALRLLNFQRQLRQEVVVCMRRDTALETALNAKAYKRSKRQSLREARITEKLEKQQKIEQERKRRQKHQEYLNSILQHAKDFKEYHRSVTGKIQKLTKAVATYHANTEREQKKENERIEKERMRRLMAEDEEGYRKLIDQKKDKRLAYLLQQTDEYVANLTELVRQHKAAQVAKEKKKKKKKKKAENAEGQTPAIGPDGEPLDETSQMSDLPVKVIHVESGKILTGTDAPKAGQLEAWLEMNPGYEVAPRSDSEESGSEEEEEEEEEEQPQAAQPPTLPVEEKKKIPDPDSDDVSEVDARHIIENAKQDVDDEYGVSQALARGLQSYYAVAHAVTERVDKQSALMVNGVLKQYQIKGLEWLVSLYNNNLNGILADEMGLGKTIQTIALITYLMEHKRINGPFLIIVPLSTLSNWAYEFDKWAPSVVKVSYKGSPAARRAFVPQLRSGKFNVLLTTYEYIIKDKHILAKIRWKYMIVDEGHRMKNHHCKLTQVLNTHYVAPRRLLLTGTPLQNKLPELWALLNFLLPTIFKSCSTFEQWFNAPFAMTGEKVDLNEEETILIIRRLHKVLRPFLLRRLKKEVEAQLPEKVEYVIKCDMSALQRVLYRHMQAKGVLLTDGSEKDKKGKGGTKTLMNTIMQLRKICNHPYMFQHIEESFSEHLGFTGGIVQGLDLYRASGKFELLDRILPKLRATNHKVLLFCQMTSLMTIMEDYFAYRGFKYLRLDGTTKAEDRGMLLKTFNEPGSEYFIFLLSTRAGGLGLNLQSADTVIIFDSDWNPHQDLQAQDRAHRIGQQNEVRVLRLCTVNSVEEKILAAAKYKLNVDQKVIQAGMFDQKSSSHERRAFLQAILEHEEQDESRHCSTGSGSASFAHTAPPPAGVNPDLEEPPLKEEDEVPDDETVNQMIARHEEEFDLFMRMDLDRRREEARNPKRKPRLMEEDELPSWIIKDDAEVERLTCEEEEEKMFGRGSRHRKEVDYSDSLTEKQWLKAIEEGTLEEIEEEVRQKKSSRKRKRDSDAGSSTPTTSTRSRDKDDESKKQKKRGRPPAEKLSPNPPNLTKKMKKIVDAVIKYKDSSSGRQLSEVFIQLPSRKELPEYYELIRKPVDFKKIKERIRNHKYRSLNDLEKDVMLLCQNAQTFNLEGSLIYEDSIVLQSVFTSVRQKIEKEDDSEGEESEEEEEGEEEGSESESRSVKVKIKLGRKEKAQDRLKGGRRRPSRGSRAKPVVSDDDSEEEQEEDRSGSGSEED
Chain of SMARCA2 (P51531 whole entry): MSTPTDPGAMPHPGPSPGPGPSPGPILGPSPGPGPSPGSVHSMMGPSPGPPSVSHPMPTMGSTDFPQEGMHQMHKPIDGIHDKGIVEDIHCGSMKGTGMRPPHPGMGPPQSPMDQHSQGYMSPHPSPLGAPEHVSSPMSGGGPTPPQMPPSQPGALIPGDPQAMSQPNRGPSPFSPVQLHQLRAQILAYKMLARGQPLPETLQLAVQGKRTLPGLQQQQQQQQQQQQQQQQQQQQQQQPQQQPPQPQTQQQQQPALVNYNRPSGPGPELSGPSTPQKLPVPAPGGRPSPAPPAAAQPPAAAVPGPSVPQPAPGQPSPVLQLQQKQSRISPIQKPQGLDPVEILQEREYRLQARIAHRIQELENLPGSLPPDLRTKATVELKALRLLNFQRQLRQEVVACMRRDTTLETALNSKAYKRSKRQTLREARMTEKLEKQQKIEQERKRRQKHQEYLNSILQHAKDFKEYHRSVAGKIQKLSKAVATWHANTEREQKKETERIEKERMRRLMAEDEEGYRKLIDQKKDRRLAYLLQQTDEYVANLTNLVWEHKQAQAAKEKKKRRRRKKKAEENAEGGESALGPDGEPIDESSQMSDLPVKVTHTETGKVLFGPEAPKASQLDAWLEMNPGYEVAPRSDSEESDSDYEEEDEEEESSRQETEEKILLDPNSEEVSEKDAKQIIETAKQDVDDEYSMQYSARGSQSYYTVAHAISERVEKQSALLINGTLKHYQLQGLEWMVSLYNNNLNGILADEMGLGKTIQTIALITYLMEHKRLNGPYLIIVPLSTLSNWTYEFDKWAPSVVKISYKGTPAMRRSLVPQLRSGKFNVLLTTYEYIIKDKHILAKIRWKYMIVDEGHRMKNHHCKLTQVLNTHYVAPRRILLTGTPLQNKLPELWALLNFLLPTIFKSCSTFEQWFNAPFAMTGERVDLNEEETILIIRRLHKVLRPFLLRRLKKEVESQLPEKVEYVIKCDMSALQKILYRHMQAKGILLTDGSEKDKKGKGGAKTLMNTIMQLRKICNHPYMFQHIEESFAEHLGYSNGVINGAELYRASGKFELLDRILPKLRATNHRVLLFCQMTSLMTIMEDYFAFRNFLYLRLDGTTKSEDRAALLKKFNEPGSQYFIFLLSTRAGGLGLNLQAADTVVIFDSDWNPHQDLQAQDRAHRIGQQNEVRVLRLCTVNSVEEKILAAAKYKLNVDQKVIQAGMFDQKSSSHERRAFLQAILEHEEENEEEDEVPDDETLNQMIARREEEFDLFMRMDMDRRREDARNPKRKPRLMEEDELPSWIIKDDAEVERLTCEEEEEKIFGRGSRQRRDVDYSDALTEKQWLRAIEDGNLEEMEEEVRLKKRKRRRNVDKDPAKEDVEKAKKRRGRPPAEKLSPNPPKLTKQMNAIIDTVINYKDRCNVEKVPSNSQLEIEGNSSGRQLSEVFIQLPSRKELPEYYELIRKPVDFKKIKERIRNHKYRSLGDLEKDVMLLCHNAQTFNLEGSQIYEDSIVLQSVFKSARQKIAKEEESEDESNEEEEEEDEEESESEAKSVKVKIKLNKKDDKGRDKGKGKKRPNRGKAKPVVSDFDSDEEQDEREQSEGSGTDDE

Structure (SMILES)	DC50 (SMARCA2)	Dmax (SMARCA2)	DC50 (SMARCA4)	Dmax (SMARCA4)
Cc1ncsc1-c1ccc([C@H](C)NC(=O)[C@@H]2C[C@@H](O)CN2C(=O)[C@@H](c2cc(OCCn3cc(-c4ccc5c(c4)C(C)(C)c4nc(=O)c6c(Cl)cccc6n4-5)cn3)no2)C(C)C)cc1 [Compound B52, (2S,4R)-1-((R)-2-(3-(2-(4-(4-chloro-7,7-dimethyl-5-oxo-5,7-dihydroindolo[1,2-a]quinazolin-9-yl)-1H-pyrazol-1-yl)ethoxy)isoxazol-5-yl)-3-methylbutanoyl)-4-hydroxy-N-((S)-1-(4-(4-methylthiazol-5-yl)phenyl)ethyl)pyrrolidine-2-carboxamide]	< 0.1 µM	70 to 90%	> 1 µM	< 50%
C[C@H](NC(=O)[C@@H]1C[C@@H](O)CN1C(=O)[C@@H](n1cc(C2CCC(CN3CCC(c4ccc5c(c4)-n4c(nc(=O)c6c(Cl)cccc64)C54CCCCC4)CC3)CC2)nn1)C(C)(C)C)c1ccc(-c2scnc2CCCN2CCOCC2)cc1 (stereo partly drawn) [Compound B108, (2S,4R)-1-((S)-2-(4-((11,4S)-4-((4-(4′-chloro-5′-oxo-5′H-spiro[cyclohexane-1,7′-indolo[1,2-a]quinazolin]-10′-yl)piperidin-1-yl)methyl)cyclohexyl)-1H-1,2,3-triazol-1-yl)-3,3-dimethylbutanoyl)-4-hydroxy-N-((S)-1-(4-(4-(3-morpholinopropyl)thiazol-5-yl)phenyl)ethyl)pyrrolidine-2-carboxamide]	0.1 to 0.5 µM	> 90%	0.1 to 0.5 µM	50 to 69%
Cc1ncsc1-c1ccc([C@H](C)NC(=O)[C@@H]2C[C@@H](O)CN2C(=O)[C@@H](NC(=O)C23CCC(CN4CCC(c5ccc6c(c5)C(C)(C)c5nc(=O)c7c(Cl)cccc7n5-6)CC4)(CC2)C3)C(C)(C)C)cc1 [Compound B18, (2S,4R)-1-((S)-2-(4-((4-(4-chloro-7,7-dimethyl-5-oxo-5,7-dihydroindolo[1,2-a]quinazolin-9-yl)piperidin-1-yl)methyl)bicyclo[2.2.1]heptane-1-carboxamido)-3,3-dimethylbutanoyl)-4-hydroxy-N-((S)-1-(4-(4-methylthiazol-5-yl)phenyl)ethyl)pyrrolidine-2-carboxamide]	< 0.1 µM	> 90%	< 0.1 µM	70 to 90%
Cc1ncsc1-c1ccc([C@H](C)NC(=O)[C@@H]2C[C@@H](O)CN2C(=O)[C@H](C(C)C)n2cc([C@H]3CC[C@H](CN4CCC(c5ccc6c(c5)-n5c(nc(=O)c7c(Cl)cccc75)C6(C)C)CC4)CC3)nn2)cc1 [Compound B41, (2S,4R)-1-((S)-2-(4-((1r,4S)-4-((4-(4-chloro-7,7-dimethyl-5-oxo-5,7-dihydroindolo[1,2-a]quinazolin-10-yl)piperidin-1-yl)methyl)cyclohexyl)-1H-1,2,3-triazol-1-yl)-3-methylbutanoyl)-4-hydroxy-N-((S)-1-(4-(4-methylthiazol-5-yl)phenyl)ethyl)pyrrolidine-2-carboxamide]	< 0.1 µM	> 90%	< 0.1 µM	70 to 90%
Cc1ncsc1-c1ccc([C@H](C)NC(=O)[C@@H]2C[C@@H](O)CN2C(=O)[C@@H](c2cc(OCCN3CCC(c4ccc5c(c4)-n4c(nc(=O)c6c(Cl)cccc64)C5(C)C)CC3)no2)C(C)C)cc1 [Compound B32, (2S,4R)-1-((R)-2-(3-(2-(4-(4-chloro-7,7-dimethyl-5-oxo-5,7-dihydroindolo[1,2-a]quinazolin-10-yl)piperidin-1-yl)ethoxy)isoxazol-5-yl)-3-methylbutanoyl)-4-hydroxy-N-((S)-1-(4-(4-methylthiazol-5-yl)phenyl)ethyl)pyrrolidine-2-carboxamide]	< 0.1 µM	> 90%	< 0.1 µM	< 50%
Cc1ncsc1-c1ccc([C@H](C)NC(=O)[C@@H]2C[C@@H](O)CN2C(=O)[C@@H](c2cc(OCCCCN3CCC(c4ccc5c(c4)C(C)(C)c4nc(=O)c6c(Cl)cccc6n4-5)CC3)no2)C(C)C)cc1 [Compound B12, (2S,4R)-1-((R)-2-(3-(4-(4-(4-chloro-7,7-dimethyl-5-oxo-5,7-dihydroindolo[1,2-a]quinazolin-9-yl)piperidin-1-yl)butoxy)isoxazol-5-yl)-3-methylbutanoyl)-4-hydroxy-N-((S)-1-(4-(4-methylthiazol-5-yl)phenyl)ethyl)pyrrolidine-2-carboxamide]	< 0.1 µM	> 90%	< 0.1 µM	> 90%
Cc1ncsc1-c1ccc([C@H](C)NC(=O)[C@@H]2C[C@@H](O)CN2C(=O)[C@@H](NC(=O)C23CCC(CN4CCC(c5ccc6c(c5)-n5c(nc(=O)c7c(Cl)cccc75)C6(C)C)CC4)(CC2)C3)C(C)(C)C)cc1 [Compound B77, (2S,4R)-1-((S)-2-(4-((4-(4-chloro-7,7-dimethyl-5-oxo-5,7-dihydroindolo[1,2-a]quinazolin-10-yl)piperidin-1-yl)methyl)bicyclo[2.2.1]heptane-1-carboxamido)-3,3-dimethylbutanoyl)-4-hydroxy-N-((S)-1-(4-(4-methylthiazol-5-yl)phenyl)ethyl)pyrrolidine-2-carboxamide]	< 0.1 µM	> 90%	0.1 to 0.5 µM	50 to 69%
Cc1ncsc1-c1ccc([C@H](C)NC(=O)[C@@H]2C[C@@H](O)CN2C(=O)[C@@H](NC(=O)CCCCn2cc(-c3ccc4c(c3)C(C)(C)c3nc(=O)c5c(Cl)cccc5n3-4)cn2)C(C)(C)C)cc1 [Compound B87, (2S,4R)-1-((S)-2-(5-(4-(4-chloro-7,7-dimethyl-5-oxo-5,7-dihydroindolo[1,2-a]quinazolin-9-yl)-1H-pyrazol-1-yl)pentanamido)-3,3-dimethylbutanoyl)-4-hydroxy-N-((S)-1-(4-(4-methylthiazol-5-yl)phenyl)ethyl)pyrrolidine-2-carboxamide]	0.1 to 0.5 µM	50 to 69%	> 1 µM	< 50%

Other lines, results leading:

DC50 (SMARCA2)	Dmax (SMARCA2)	DC50 (SMARCA4)	Dmax (SMARCA4)	Structure (SMILES)
< 0.1 µM	> 90%	< 0.1 µM	> 90%	Cc1ncsc1-c1ccc([C@H](C)NC(=O)[C@@H]2C[C@@H](O)CN2C(=O)[C@@H](n2cc(-c3cccc(CN4CCC(c5ccc6c(c5)-n5c(nc(=O)c7c(Cl)cccc75)C6(C)C)CC4)c3)nn2)C(C)(C)C)cc1 [Compound B119, (2S,4R)-1-((S)-2-(4-(3-((4-(4-chloro-7,7-dimethyl-5-oxo-5,7-dihydroindolo[1,2-a]quinazolin-10-yl)piperidin-1-yl)methyl)phenyl)-1H-1,2,3-triazol-1-yl)-3,3-dimethylbutanoyl)-4-hydroxy-N-((S)-1-(4-(4-methylthiazol-5-yl)phenyl)ethyl)pyrrolidine-2-carboxamide]
< 0.1 µM	70 to 90%	< 0.1 µM	50 to 69%	Cc1ncsc1-c1ccc([C@H](C)NC(=O)[C@@H]2C[C@@H](O)CN2C(=O)[C@@H](n2cc(C34CC(C(=O)N5CCC(c6ccc7c(c6)-n6c(nc(=O)c8c(Cl)cccc86)C76CCCCC6)CC5)(C3)C4)nn2)C(C)(C)C)cc1 [Compound B169]
< 0.1 µM	> 90%	< 0.1 µM	70 to 90%	C#Cc1ccc([C@H](C)NC(=O)[C@@H]2C[C@@H](O)CN2C(=O)[C@H](C(C)C)n2cc([C@H]3CC[C@H](CN4CCC(c5ccc6c(c5)-n5c(nc(=O)c7c(Cl)cccc75)C6(C)C)CC4)CC3)nn2)cc1 [Compound B128, (2S,4R)-1-((S)-2-(4-((1r,4S)-4-((4-(4-chloro-7,7-dimethyl-5-oxo-5,7-dihydroindolo[1,2-a]quinazolin-10-yl)piperidin-1-yl)methyl)cyclohexyl)-1H-1,2,3-triazol-1-yl)-3-methylbutanoyl)-N-((S)-1-(4-ethynylphenyl)ethyl)-4-hydroxypyrrolidine-2-carboxamide]
< 0.1 µM	> 90%	0.1 to 0.5 µM	70 to 90%	Cc1ncsc1-c1ccc([C@H](C)NC(=O)[C@@H]2C[C@@H](O)CN2C(=O)[C@H](C(C)C)n2cc(CC3CCC(N4CCC(c5cccc6c5C(C)(C)c5nc(=O)c7c(Cl)cccc7n5-6)CC4)CC3)nn2)cc1 (stereo partly drawn) [Compound B132, (2S,4R)-1-((S)-2-(4-((4-(4-(4-chloro-7,7-dimethyl-5-oxo-5,7-dihydroindolo[1,2-a]quinazolin-8-yl)piperidin-1-yl)cyclohexyl)methyl)-1H-1,2,3-triazol-1-yl)-3-methylbutanoyl)-4-hydroxy-N—((S)-1-(4-(4-methylthiazol-5-yl)phenyl)ethyl)pyrrolidine-2-carboxamide]
< 0.1 µM	> 90%	0.1 to 0.5 µM	50 to 69%	Cc1ncsc1-c1ccc2c(c1)CCC[C@H]2NC(=O)[C@@H]1C[C@@H](O)CN1C(=O)[C@@H](n1cc([C@H]2CC[C@H](CN3CCC(c4ccc5c(c4)-n4c(nc(=O)c6c(Cl)cccc64)C5(C)C)CC3)CC2)nn1)C(C)(C)C [Compound B151, (2S,4R)-1-((S)-2-(4-((1r,4S)-4-((4-(4-chloro-7,7-dimethyl-5-oxo-5,7-dihydroindolo[1,2-a]quinazolin-10-yl)piperidin-1-yl)methyl)cyclohexyl)-1H-1,2,3-triazol-1-yl)-3,3-dimethylbutanoyl)-4-hydroxy-N-((R)-6-(4-methylthiazol-5-yl)-1,2,3,4-tetrahydronaphthalen-1-yl)pyrrolidine-2-carboxamide]
